Measurements reported in article PMC5733478, “A Non-imaging High Throughput Approach to Chemical Library Screening at the Unmodified Adenosine-A3 Receptor in Living Cells” (Frontiers in Pharmacology, 2017).
Structures can show the parent of a compound that is named as a salt.

target: T1, human A3AR (Homo sapiens, UniProt P0DMS8); assay: LOPAC library primary screen: single concentration (10 μM) inhibition of 25 nM CA200645 binding, PHERAstar FS; settings: not given
T1 construct: expressed in transfected cells
T1 sequence (P0DMS8 1-318): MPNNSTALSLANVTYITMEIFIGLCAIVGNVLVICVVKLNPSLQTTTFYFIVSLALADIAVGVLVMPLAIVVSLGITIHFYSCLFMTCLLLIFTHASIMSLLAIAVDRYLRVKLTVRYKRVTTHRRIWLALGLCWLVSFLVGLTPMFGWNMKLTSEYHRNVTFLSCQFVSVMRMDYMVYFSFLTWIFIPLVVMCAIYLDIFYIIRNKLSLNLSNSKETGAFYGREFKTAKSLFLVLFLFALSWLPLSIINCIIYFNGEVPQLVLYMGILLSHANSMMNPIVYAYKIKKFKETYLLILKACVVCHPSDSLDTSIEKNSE

Compound | % 25 nM CA200645 binding [%] | % Total CA200645 binding [%]
COc1ccc(OC)c(C(O)C(C)N)c1 (stereo not shown) [Methoxamine hydrochloride] | 132.3 ± 57.0 | 
O=C(O)/C=C\C(=O)O.c1cnc(N2CCN(Cc3ccc4c(c3)OCO4)CC2)nc1 [Piribedil maleate] | 97.8 ± 1.7 | 
Nc1ccc(CCNc2ncnc3c2ncn3[C@@H]2O[C@H](CO)[C@@H](O)[C@H]2O)cc1 [N6-2-(4-Aminophenyl)ethyladenosine] | 41.0 ± 7.1 | 
Cl.OCc1c[nH]cn1 [4-Imidazolemethanol hydrochloride] | 101.5 ± 8.2 | 
Cc1c2ccncc2c(C)c2c1[nH]c1ccccc12 [Ellipticine] | 78.2 ± 23.8 | 
COc1cccc(C(=O)NCCN2CCN(c3ccc(Cl)cc3)CC2)c1 | 94.3 ± 6.0 | 
FC(F)(F)c1ccccc1-n1ccnc1 [1-[2-(Trifluoromethyl)phenyl]imidazole] | 101.2 ± 9.4 | 
C[n+]1cc2c3c(ccc2c2ccc4cc5c(cc4c21)OCO5)OCO3 [Sanguinarine chloride] | 38.9 ± 20.6 | 
O=C(O)COCCN1CCN(C(c2ccccc2)c2ccc(Cl)cc2)CC1 (stereo not shown) [Cetirizine dihydrochloride] | 98.6 ± 19.3 | 
NS(=O)(=O)Cc1noc2ccccc12 [Zonisamide sodium] | 98.6 ± 10.8 | 
CC(C)C[C@H](NC(=O)[C@H](O)[C@H](N)Cc1ccccc1)C(=O)O [Epibestatin hydrochloride] | 102.9 ± 13.0 | 
O=C(N[C@H]1CN2CCC1CC2)c1ccc(Cl)cc1 [PNU-282987] | 78.9 ± 33.0 | 
NC(=O)COc1c(F)cc(SCCNS(=O)(=O)c2ccccc2)cc1F | 109.8 ± 13.1 | 
NN=C(N)N.NN=C(N)N.O=S(=O)(O)O [Aminoguanidine hemisulfate] | 99.2 ± 8.4 | 
Ro 8-4304 | 107.2 ± 11.5 | 
CN1CCC(c2c[nH]c3ccc(O)cc23)CC1.O=C(O)/C=C\C(=O)O [BRL 54443 maleate] | 102.8 ± 6.2 | 
C/C=C(/C)C(=O)O[C@H]1C(C)=C2[C@H]([C@@H]1OC(=O)CCCCCCC)[C@@](C)(OC(C)=O)C[C@H](OC(=O)CCC)[C@@]1(O)[C@H]2OC(=O)[C@@]1(C)O [Thapsigargin] | 65.1 ± 10.7 | 
N#C/C(=C\c1ccc(O)c(O)c1)C(=O)Nc1ccccc1 [Tyrphostin AG 494] | 91.5 ± 7.4 | 
NC[C@@H]1O[C@H](O[C@H]2[C@@H](O)[C@H](O[C@@H]3[C@@H](O)[C@H](N)C[C@H](N)[C@H]3O[C@H]3O[C@H](CO)[C@@H](O)[C@H](O)[C@H]3N)O[C@@H]2CO)[C@H](N)[C@@H](O)[C@@H]1O [Paromomycin sulfate] | 106.3 ± 7.8 | 
O=C1NCc2c1c1c3ccccc3[nH]c1c1[nH]c3ccccc3c21 [Staurosporine aglycone] | 81.9 ± 6.1 | 
CC(C(O)c1ccc(O)cc1)N1CCC(Cc2ccccc2)CC1.CC(C(O)c1ccc(O)cc1)N1CCC(Cc2ccccc2)CC1.O=C(O)C(O)C(O)C(=O)O (stereo not shown) [Ifenprodil tartrate] | 95.4 ± 10.6 | 
O=c1cc(O)cc(/C=C/c2ccc(O)c(O)c2)o1 [Hispidin] | 77.8 ± 19.6 | 

Compound | % 25 nM CA200645 binding [%] | % Total CA200645 binding [%]
NS(=O)(=O)c1cc2c(cc1Cl)NC(C1CC3C=CC1C3)NS2(=O)=O (stereo not shown) [Cyclothiazide] | 93.2 ± 4.7 | 
CN1CCN(C2=Nc3ccccc3Oc3ccc(Cl)cc32)CC1 [Loxapine succinate] | 80.2 ± 12.7 | 
N#CC(C#N)=C(N)/C(C#N)=C/c1ccc(O)cc1 [Tyrphostin AG 112] | 102.8 ± 4.7 | 
CCc1ccccc1OC[C@@H](O)CN[C@H]1CCCc2ccccc21.O=C(O)C(=O)O [SR 59230A oxalate] | 94.8 ± 26.7 | 
CCn1cc(C(=O)O)c(=O)c2cc3c(cc21)OCO3 [Oxolinic acid] | 101.1 ± 12.4 | 
Clc1nccc2c1ccc1ccccc12 [CBIQ] | 87.1 ± 7.0 | 
CC(C)(C)OC(=O)NC1[C@H]2CNC[C@@H]12 (stereo partly shown) [CP-101537] | 102.3 ± 6.7 | 
Cl.NCC(O)C1CCCCCCC1 (stereo not shown) | 94.5 ± 6.6 | 
O=C1NCN(c2ccccc2)C12CCN(CCCC(c1ccc(F)cc1)c1ccc(F)cc1)CC2 [Fluspirilene] | 94.5 ± 10.0 | 
CC[N+](C)(C)c1cccc(O)c1 [Edrophonium chloride] | 88.1 ± 20.0 | 
Oc1ccc2ccccc2c1SSc1c(O)ccc2ccccc12 [IPA-3] | 63.1 ± 15.2 | 
CCCCCCCCCCCCCCC[C@H](O)[C@H](N)CO (racemic) [DL-erythro-Dihydrosphingosine] | 98.5 ± 11.2 | 
CC12CC3CC(C)(C1)CC(N)(C3)C2 [Memantine hydrochloride] | 109.9 ± 10.5 | 
C[C@](N)(Cc1ccc(O)c(O)c1)C(=O)O [L-alpha-Methyl DOPA] | 92.6 ± 21.6 | 
CCN(CC)CCNC(=O)c1ccc(NS(C)(=O)=O)cc1.Cl.O [Sematilide monohydrochloride monohydrate] | 97.5 ± 2.4 | 
COC(=O)C(C)(N)Cc1ccc(O)cc1.Cl (racemic) | 108.9 ± 8.2 | 
CN(C)CCCN1c2ccccc2Sc2ccc(C(F)(F)F)cc21 [Triflupromazine hydrochloride] | 99.0 ± 16.0 | 
O=C(O)c1nn(Cc2ccc(Cl)cc2Cl)c2ccccc12 [Lonidamine] | 94.6 ± 7.2 | 
CCOC(=O)[C@H](CCc1ccccc1)N[C@@H](C)C(=O)N1[C@H](C(=O)O)C[C@H]2CCCC[C@@H]21 [Trandolapril] | 99.7 ± 12.5 | 
CC(O)(CS(=O)(=O)c1ccc(F)cc1)C(=O)Nc1ccc(C#N)c(C(F)(F)F)c1 (stereo not shown) [Bicalutamide (CDX)] | 96.9 ± 5.3 | 
COC(=O)[C@@H]1[C@H]2C[C@H]3c4[nH]c5ccccc5c4CCN3C[C@@H]2CC[C@@H]1O [Yohimbine hydrochloride] | 100.6 ± 0.5 | 
C[C@@H]1O[C@H](C[N+](C)(C)C)C[C@H]1O.[Cl-] (racemic) [(±)-Muscarine chloride] | 94.8 ± 15.8 | 

Compound | % 25 nM CA200645 binding [%] | % Total CA200645 binding [%]
CC(=O)S[C@@H]1CC2=CC(=O)CC[C@]2(C)[C@H]2CC[C@@]3(C)[C@@H](CC[C@@]34CCC(=O)O4)[C@H]12 [Spironolactone] | 94.5 ± 9.9 | 
CCCCCCCC/C=C\CCCCCCCC(=O)NCCc1ccc(O)c(O)c1 [N-Oleoyldopamine] | 53.5 ± 8.3 | 
CCNc1nc2c(ncn2[C@H]2C[C@H](O)[C@@H](CO)O2)c(=O)[nH]1 [N2-Ethyl-2'-deoxyguanosine] | 108.7 ± 6.3 | 
CCN(CC)C(C)CN1c2ccccc2Sc2ccccc21 (stereo not shown) [Ethopropazine hydrochloride] | 108.3 ± 15.2 | 
Nc1c[n+](N2CCOCC2)no1.[Cl-] [3-Morpholinosydnonimine hydrochloride] | 114.0 ± 15.4 | 
COCCCC/C(=N\OCCN)c1ccc(C(F)(F)F)cc1 [Fluvoxamine maleate] | 100.9 ± 16.7 | 
CC(C)[C@H]1c2ccc(F)cc2CC[C@@]1(CCN(C)CCCc1nc2ccccc2[nH]1)OC(=O)C1CC1 [NNC 55-0396] | 109.8 ± 31.5 | 
C[N+]1(C)[C@@H]2C[C@@H](OC(=O)[C@H](CO)c3ccccc3)C[C@H]1[C@@H]1O[C@@H]12 [(-)-Scopolamine methyl bromide] | 88.5 ± 14.0 | 
CCC1(c2ccc(N)cc2)CCC(=O)NC1=O (racemic) [(±)-p-Aminoglutethimide] | 94.1 ± 8.7 | 
CCCCCCN(CCCCCC)C(=O)Cc1c(-c2ccc(F)cc2)[nH]c2ccccc12 | 88.5 ± 10.2 | 
CC(NCCc1ccc(O)cc1)C(O)c1ccc(O)cc1 (stereo not shown) [Ritodrine hydrochloride] | 99.4 ± 8.5 | 
COc1cc(OC)c(C=C2C(O)=Nc3ccccc32)c(OC)c1 [IC 261] | 88.8 ± 5.2 | 
CNC(=O)[C@H]1O[C@@H](n2cnc3c(NCc4cccc(I)c4)ncnc32)[C@H](O)[C@@H]1O [IB-MECA, reference compound] | 36.3 ± 4.0 | 36.3 ± 4.0
CCCC(C(=O)OCCN(CC)CC)(c1ccccc1)c1ccccc1.Cl [SKF-525A hydrochloride] | 95.3 ± 9.0 | 
CCCCCN(C)CCC(O)(P(=O)([O-])O)P(=O)(O)O.[Na+] [Ibandronate sodium] | 95.5 ± 10.4 | 
Cl.NCCS [Cysteamine hydrochloride] | 89.3 ± 6.0 | 
Nc1nc(N)c(N=O)c(OCC2CCCCC2)n1 [NU6027] | 80.6 ± 9.9 | 
NS(=O)(=O)C#Cc1ccccc1 [Pifithrin-mu] | 92.3 ± 34.4 | 
Oc1ccc(O)cc1 [Hydroquinone] | 100.7 ± 6.6 | 
CC(=O)c1ccc2c(c1)N(CCCN(C)C)c1ccccc1S2 [Acepromazine maleate] | 90.7 ± 4.5 | 

same assay, conditions: % of control wells (1% DMSO and 25 nM CA200645); compounds at 10 µM; whole live cells expressing the A3AR; mean ± SD, three experiments in duplicate

% 25 nM CA200645 binding [%] | Compound
100.3 ± 16.3 | Oc1ccc(/C=C/c2cc(O)cc(O)c2)cc1 [Resveratrol]
99.3 ± 14.1 | O=C(O)C1=CCCNC1 [Guvacine hydrochloride]

same assay, conditions: compounds tested at 10 µM; % of control wells (1% DMSO and 25 nM CA200645); whole live cells expressing the A3AR; mean ± SD, three experiments in duplicate

% 25 nM CA200645 binding [%] | Compound
96.0 ± 4.2 | C#CCN(C)CCCOc1ccc(Cl)cc1Cl [Clorgyline hydrochloride]
94.4 ± 10.9 | CCCCN(CCCC)CC(O)c1cc(Cl)cc2c1-c1ccc(Cl)cc1/C2=C/c1ccc(Cl)cc1 (stereo not shown) [Lumefantrine]
89.1 ± 34.9 | Nc1ccc(S(=O)(=O)Nc2ccnn2-c2ccccc2)cc1 [Sulfaphenazole]
